Results on 18 compounds are retold here after patent US9732104B2, “Ether compounds for treatment of complement mediated disorders” (Achillion Pharmaceuticals, Inc., priority 2014, dated 2017).

Molecules are shown by their SMILES.

Chain of Human factor D (P00746 26-253): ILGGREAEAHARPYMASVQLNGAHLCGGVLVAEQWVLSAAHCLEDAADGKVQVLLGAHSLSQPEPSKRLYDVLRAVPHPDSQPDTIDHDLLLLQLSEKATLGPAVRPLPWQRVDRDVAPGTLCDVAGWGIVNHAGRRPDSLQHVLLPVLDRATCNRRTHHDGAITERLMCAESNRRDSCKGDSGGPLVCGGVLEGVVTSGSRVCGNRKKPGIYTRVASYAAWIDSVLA

The assay has as its target Human factor D (Homo sapiens (Human), UniProt P00746). The assay can be described thus: Human Factor D Assay. The assay is classed as biochemical. The settings on record: Human factor D purified from human serum, 80 nM; substrate Z-L-Lys-SBzl with DTNB; assay of Example 8. The procedure: The assay of Example 8 was used to determine the IC50's of the compounds. Other standard factor D inhibition assays are also available.
Example 8. Human Factor D Assay
Human factor D (purified from human serum, Complement Technology, Inc.) at 80 nM final concentration is incubated with test compound at various concentrations for 5 minutes at room temperature in 50 mM Tris, 1M NaCl, pH 7.5. A synthetic substrate Z-L-Lys-SBzl and DTNB (Ellman's reagent) are added to final concentrations of 100 µM each. The increase in color is recorded at OD405 nm in a microplate in kinetic mode over 30 minutes with 30 second time points in a […]. IC50 values are calculated by non-linear regression from the percentage of inhibition of complement factor D activity as a function of test compound concentration.
What is called IC50 is the concentration that gives 50% inhibition. Low readings indicate inhibition by little substance, high ones a need for much substance. Take `CC(=O)c1cn(CC(=O)N2C[C@H](F)C[C@H]2C(=O)NCc2cccc(Cl)c2F)c2cc(OCP(=O)(OCOC(=O)OC(C)C)OCOC(=O)OC(C)C)ccc12` [Compound 12, (((3-acetyl-1-(2-((2S,4R)-2-(3-chloro-2-fluorobenzylcarbamoyl)-4-fluoropyrrolidin-1-yl)-2-oxoethyl)-1H-indol-6-yloxy)methyl)phospho-ryl)bis(oxy)bis(methylene) isopropyl dicarbonate]: the IC50 was less than 1000 nM.
Then `CCOP(=O)(COc1ccc2c(C(C)=O)cn(CC(=O)N3C[C@H](F)C[C@H]3C(=O)NCc3cccc(Cl)c3F)c2c1)OCC` [Compound 7, diethyl (3-acetyl-1-(2-((2S,4R)-2-(3-chloro-2-fluorobenzylcarbamoyl)-4-fluoropyrrolidin-1-yl)-2-oxoethyl)-1H-indol-6-yloxy)methylphosphonate], with less than 1000 nM; and `CCCCCCCCCCCCCCCCOCCCOP(=O)(O)COc1ccc2c(C(C)=O)cn(CC(=O)N3C[C@H](F)C[C@H]3C(=O)NCc3cccc(Cl)c3F)c2c1` [Compound 20, 3-(hexadecyloxy)propyl hydrogen (3-acetyl-1-(2-((2S,4R)-2-(3-chloro-2-fluorobenzylcarbamoyl)-4-fluoropyrrolidin-1-yl)-2-oxoethyl)-1H-indol-6-yloxy)methylphosphonate], with less than 1000 nM.
Then `CC(=O)c1cn(CC(=O)N2C[C@H](F)C[C@H]2C(=O)NCc2cccc(Cl)c2F)c2cc(OCS(N)(=O)=O)ccc12` [Compound 17, (2S,4R)-1-(2-(3-acetyl-6-(sulfamoylmethoxy)-1H-indol-1-yl)acetyl)-N-(3-chloro-2-fluorobenzyl)-4-fluoropyrrolidine-2-carboxamide], with less than 1000 nM; and `CC(=O)c1cn(CC(=O)N2C[C@H](F)C[C@H]2C(=O)NCc2cccc(Cl)c2F)c2cc(OCS(=O)(=O)NC(C)(C)C)ccc12` [Compound 15, (2S,4R)-1-(2-(3-acetyl-6-(N-tert-butylsulfamoylmethoxy)-1H-indol-1-yl)acetyl)-N-(3-chloro-2-fluorobenzyl)-4-fluoropyrrolidine-2-carboxamide], with less than 1000 nM.
Then `CC(=O)c1cn(CC(=O)N2C[C@H](F)C[C@H]2CNS(=O)(=O)c2cccc(Cl)c2F)c2cc(OCP(=O)(O)O)ccc12` [Compound 22, (3-acetyl-1-(2-((2S,4R)-2-((3-chloro-2-fluoro-phenylsulfonamido)meth-yl)-4-fluoropyrrolidin-1-yl)-2-oxoethyl)-1H-indol-6-yloxy)methylphosphonic acid], with less than 1000 nM; and `CC(=O)c1cn(CC(=O)N2C[C@H](F)C[C@H]2C(=O)Nc2cccc(-c3ccccc3Cl)c2F)c2ccc(Oc3ncc(F)cn3)cc12` [Compound 37, (2S,4R)-1-(2-(3-acetyl-5-(5-fluoropyrimidin-2-yloxy)-1H-indol-1-yl)acetyl)-N-(2′-chloro-2-fluorobiphenyl-3-yl)-4-fluoropyrrolidine-2-carboxamide], with less than 1000 nM.
In the case of `CC(=O)c1cn(CC(=O)N2C[C@H](F)C[C@H]2C(=O)NCc2cccc(Cl)c2F)c2cc(OCP(=O)(N[C@@H](C)C(=O)OC(C)C)N[C@@H](C)C(=O)OC(C)C)ccc12` [Compound 24, (2S,2′S)-isopropyl 2,2′-(((3-acetyl-1-(2-((2S,4R)-2-(3-chloro-2-fluorobenzylcarbamoyl)-4-fluoropyrrolidin-1-yl)-2-oxoethyl)-1H-indol-6-yloxy)methyl)phosph-oryl)bis(azanediyl)di-propanoate], the IC50 is less than 1000 nM.
Then `CC(=O)c1cn(CC(=O)N2C[C@H](F)C[C@H]2C(=O)Nc2cccc(Br)n2)c2ccc(Oc3ncccn3)cc12` [Compound 39, (2S,4R)-1-(2-(3-acetyl-5-(pyrimidin-2-yloxy)-1H-indol-1-yl)acetyl)-N-(6-bromopyridin-2-yl)-4-fluoropyrrolidine-2-carboxamide], with less than 1000 nM.
Then `CCOP(=O)(COc1ccc2c(c1)c(C(C)=O)cn2CC(=O)N1C[C@H](F)C[C@H]1C(=O)NCc1cccc(Cl)c1F)OCC` [Compound 10, diethyl (3-acetyl-1-(2-((2S,4R)-2-(3-chloro-2-fluorobenzylcarbamoyl)-4-fluoropyrrolidin-1-yl)-2-oxoethyl)-1H-indol-5-yloxy)methylphosphonate], with less than 1000 nM.
For `CC(=O)c1cn(CC(=O)N2C[C@H](F)C[C@H]2C(=O)Nc2cccc(-c3ccccc3Cl)c2F)c2ccc(Oc3cnc(C#N)nc3)cc12` [Compound 36, (2S,4R)-1-(2-(3-acetyl-5-(2-cyanopyrimidin-5-yloxy)-1H-indol-1-yl)acetyl)-N-(2′-chloro-2-fluorobiphenyl-3-yl)-4-fluoropyrrolidine-2-carboxamide] the value was less than 1000 nM; for `CC(=O)c1cn(CC(=O)N2C[C@H](F)C[C@H]2C(=O)NCc2cccc(Cl)c2F)c2cc(OS(=O)(=O)C(F)(F)F)ccc12` [Compound 2, 3-acetyl-1-(2-((2S,4R)-2-(3-chloro-2-fluorobenzylcarbamoyl)-4-fluoropyrrolidin-1-yl)-2-oxoethyl)-1H-indol-6-yl trifluoromethanesulfonate], less than 1000 nM.
The compound `CC(=O)c1cn(CC(=O)N2C[C@H](F)C[C@H]2C(=O)NCc2cccc(Cl)c2F)c2cc(OCCC3CC3)ccc12` [Compound 5, (2S,4R)-1-(2-(3-acetyl-6-(2-cyclopropylethoxy)-1H-indol-1-yl)acetyl)-N-(3-chloro-2-fluorobenzyl)-4-fluoropyrrolidine-2-carboxamide] registered a half-inhibitory concentration (IC50) of less than 1000 nM.
For `CC(=O)c1cn(CC(=O)N2C[C@H](F)C[C@H]2C(=O)NCc2cccc(Cl)c2F)c2cc(Oc3ncccn3)ccc12` [Compound 30, (2S,4R)-1-(2-(3-acetyl-6-(pyrimidin-2-yloxy)-1H-indol-1-yl)acetyl)-N-(3-chloro-2-fluorobenzyl)-4-fluoropyrrolidine-2-carboxamide] the value was less than 1000 nM.
`CC(=O)c1cn(CC(=O)N2C[C@H](F)C[C@H]2C(=O)Nc2cccc(-c3ccccc3Cl)c2F)c2ccc(Oc3ncc(C(F)(F)F)cn3)cc12` [Compound 42, (2S,4R)-1-(2-(3-acetyl-5-(5-(trifluoromethyl)pyrimidin-2-yloxy)-1H-indol-1-yl)acetyl)-N-(2′-chloro-2-fluorobiphenyl-3-yl)-4-fluoropyrrolidine-2-carboxamide] displayed a half-maximal inhibitory concentration (IC50) of less than 1000 nM.
Regarding `NC(=O)c1nn(CC(=O)N2C[C@H](F)C[C@H]2C(=O)Nc2cccc(-c3ccccc3Cl)c2F)c2ccc(Oc3cncnc3)cc12` [Compound 31, 1-(2-((2S,4R)-2-(2′-chloro-2-fluorobiphenyl-3-ylcarbamoyl)-4-fluoropyrrolidin-1-yl)-2-oxoethyl)-5-(pyrimidin-5-yloxy)-1H-indazole-3-carboxamide], the IC50 is less than 1000 nM.
For `CC(=O)c1cn(CC(=O)N2C[C@H](F)C[C@H]2C(=O)NCc2cccc(Cl)c2F)c2ccc(OCP(=O)(O)O)cc12` [Compound 11, (3-acetyl-1-(2-((2S,4R)-2-(3-chloro-2-fluorobenzylcarbamoyl)-4-fluoropyrrolidin-1-yl)-2-oxoethyl)-1H-indol-5-yloxy)methylphosphonic acid] the value was less than 1000 nM.
For `CC(=O)c1cn(CC(=O)N2C[C@H](F)C[C@H]2C(=O)NCc2cccc(Cl)c2F)c2cc(OCC3CC3)ccc12` [Compound 1, (2S,4R)-1-(2-(3-acetyl-6-(cyclopropylmethoxy)-1H-indol-1-yl)acetyl)-N-(3-chloro-2-fluorobenzyl)-4-fluoropyrrolidine-2-carboxamide] the value was less than 1000 nM.
